# Measurements taken from PubChem BioAssay AID1963963 (Molecular Pharmacology Branch, DTP, NCI, 2024).
# pIC50: −log10 of the molar value.
# System: 958667-338-R-J2-PDC tumor spheroids viability
# Assay: Anticancer human tumor 958667-338-R-J2-PDC patient-derived colon adenocarcinoma cell line growth inhibition [PI3K]
# Details: spheroids with HUVEC and MSC; for pIC50: curve of first compound; for viability, T/C: stronger effect = lower value
# Text: Combinatorial screen of targeted agents with the PI3K inhibitors inavolisib, alpelisib, duvelisib, and copanlisib in multi-cell type tumor spheroids
# A high-throughput screen of multi-cell type tumor spheroids was designed to identify active combinations of targeted small molecules and PI3K pathway inhibitors. Complex spheroids include a stromal component modeled by human endothelial cells (HUVEC) and fibroblasts modeled by human mesenchymal stem cells (MSCs). The concentration ranges selected for each drug and investigational agent were based upon clinically achievable concentrations if the clinical Cmax of the agent was known.
# Compounds. The drugs and investigational agents: inavolisib (NSC800729), alpelisib (NSC765974), duvelisib (NSC772469), copanlisib (NSC816437), ipatasertib (NSC767898), afuresertib (NSC778305), talazoparib (NSC767125), sapanisertib (NSC764658), selumetinib (NSC741078), tovorafenib (DAY101, NSC766906), vemurafenib (NSC761431), ravoxertinib (NSC781343), sotorasib (NSC818433), MRTX1133 (NSC 836407), abemaciclib (NSC 768073), palbociclib (NSC758247), venetoclax (NSC 766270), SY5609 (NSC837396), enzalutamide (NSC755605), and darolutamide (NSC825331), were obtained from the National Cancer Institute (NCI) Developmental Therapeutics Program Chemical Repository. The FDA-approved anticancer drug set is available from the NCI Developmental Therapeutics Program. […] The stock solutions were prepared in dimethyl sulfoxide (DMSO, Sigma-Aldrich, St. Louis, MO, cat. D2650) at 800-fold the tested concentration and stored at -70 degrees C prior to their use. All drugs and investigational agents were tested over a range starting from a high concentration at or near the clinical Cmax and decreasing in half-log increments. If the clinical Cmax for an agent had not been determined, the highest concentration tested was 10 microM.
# Cell Culture. All cells were maintained in an incubator at 37 degrees C and 5% CO2 with 95% humidity. The PDC lines were cultured according to standard operating procedures established by the NCI PDMR (https://pdmr.cancer.gov/sops/default.htm). All PDCs were thawed and cultured in Matrigel-coated flasks prepared with a working solution of 1X Ham's F-12 nutrient mix, without supplementation (Invitrogen, Waltham, MA, cat. 11765054), 100 U/mL penicillin-streptomycin (Invitrogen, cat. 15140122), and 2.5% Matrigel (Corning Inc., Corning, NY, cat. 354248) for the first three passages. The 354836-022-R-J1-PDC, 475296-252-R-J1-PDC, and 997726-040-R-J2-PDC lines were cultured in 6A media, which includes advanced DMEM/F-12 (Thermo Fisher Scientific, cat. 12634028), 10 mM HEPES (Thermo Fisher Scientific, cat. 15630080), 1X GlutaMAX supplement (Thermo Fisher Scientific, cat. 35050061), 0.1 mg/mL primocin (InvivoGen, San Diego, CA, cat. ant-pm-2), 10% defined fetal bovine serum, heat inactivated (HyClone Laboratories Inc., Logan, UT, cat. SH30070.03HI), 50% L-WRN conditioned media (ATCC, cat. CRL-3276), 1.25 mM N-Acetyl-L-cysteine (Sigma-Aldrich, cat. A9165), 10 mM nicotinamide (Sigma-Aldrich, cat. N0636), 1X B-27 supplement (Thermo Fisher Scientific, cat. 17504044), 1X N-2 supplement (Thermo Fisher Scientific, cat. 17502048), and 10 microM Y-27632 dihydrochloride (Tocris Bioscience, Bristol, United Kingdom, cat. 1254). The 624824-186-R-J2-PDC line was cultured in 6C/Colon 1B media, which includes all 6A media components plus 50 ng/mL human EGF recombinant protein (Thermo Fisher Scientific, cat. PHG0311). […]
# [1] = second compound 0.0316 µM, first compound 0.0316 µM
# [2] = second compound 0.0316 µM, first compound 0.1 µM
# [3] = second compound 0.0316 µM, first compound 0.316 µM
# [4] = second compound 0.0316 µM, first compound 1 µM
# [5] = second compound 0.0316 µM, first compound 3.16 µM
# [6] = second compound 0.0316 µM, first compound 10 µM
# [7] = second compound 0.1 µM, first compound 0.0316 µM
# [8] = second compound 0.1 µM, first compound 0.1 µM
# [9] = second compound 0.1 µM, first compound 0.316 µM
# [10] = second compound 0.1 µM, first compound 1 µM
# [11] = second compound 0.1 µM, first compound 3.16 µM
# [12] = second compound 0.1 µM, first compound 10 µM
# [13] = second compound 0.316 µM, first compound 0.0316 µM
# [14] = second compound 0.316 µM, first compound 0.1 µM
# [15] = second compound 0.316 µM, first compound 0.316 µM
# [16] = second compound 0.316 µM, first compound 1 µM
# [17] = second compound 0.316 µM, first compound 3.16 µM
# [18] = second compound 0.316 µM, first compound 10 µM
# [19] = second compound 1 µM, first compound 0.0316 µM
# [20] = second compound 1 µM, first compound 0.1 µM
# [21] = second compound 1 µM, first compound 0.316 µM
# [22] = second compound 1 µM, first compound 1 µM
# [23] = second compound 1 µM, first compound 3.16 µM
# [24] = second compound 1 µM, first compound 10 µM
# [25] = second compound 3.16 µM, first compound 0.0316 µM
# [26] = second compound 3.16 µM, first compound 0.1 µM
# [27] = second compound 3.16 µM, first compound 0.316 µM
# [28] = second compound 3.16 µM, first compound 1 µM
# [29] = second compound 3.16 µM, first compound 3.16 µM
# [30] = second compound 3.16 µM, first compound 10 µM
# [31] = second compound 10 µM, first compound 0.0316 µM
# [32] = second compound 10 µM, first compound 0.1 µM
# [33] = second compound 10 µM, first compound 0.316 µM
# [34] = second compound 10 µM, first compound 1 µM
# [35] = second compound 10 µM, first compound 3.16 µM
# [36] = second compound 10 µM, first compound 10 µM
# 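Also: spheroids exposed to compounds for seven days before readout.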
structure (smiles),measurement,setting,value
Cn1nccc1Nc1nccc(-c2ccn(C(CO)c3ccc(Cl)c(F)c3)c(=O)c2)n1 (centres undefined) + Cc1nc(NC(=O)N2CCCC2C(N)=O)sc1-c1ccnc(C(C)(C)C(F)(F)F)c1,pIC50,second compound 0.0316 µM,< 5.00
same,pIC50,second compound 0.1 µM,< 5.00
same,pIC50,second compound 0.316 µM,< 5.00
same,pIC50,second compound 1 µM,5.09
same,pIC50,second compound 3.16 µM,5.44
same,pIC50,second compound 10 µM,5.80
same,"viability, T/C",[1],113%
same,"viability, T/C",[2],105%
same,"viability, T/C",[3],119%
same,"viability, T/C",[4],101%
same,"viability, T/C",[5],79.5%
same,"viability, T/C",[6],77.2%
same,"viability, T/C",[7],137%
same,"viability, T/C",[8],98%
same,"viability, T/C",[9],97.2%
same,"viability, T/C",[10],79.8%
same,"viability, T/C",[11],75%
same,"viability, T/C",[12],71.8%
same,"viability, T/C",[13],99.6%
same,"viability, T/C",[14],92.8%
same,"viability, T/C",[15],91.3%
same,"viability, T/C",[16],72%
same,"viability, T/C",[17],82.2%
same,"viability, T/C",[18],67.4%
same,"viability, T/C",[19],101%
same,"viability, T/C",[20],85.9%
same,"viability, T/C",[21],84.5%
same,"viability, T/C",[22],68.8%
same,"viability, T/C",[23],77.8%
same,"viability, T/C",[24],42.1%
same,"viability, T/C",[25],65.8%
same,"viability, T/C",[26],78.8%
same,"viability, T/C",[27],74.6%
same,"viability, T/C",[28],90.4%
same,"viability, T/C",[29],56.6%
same,"viability, T/C",[30],4.78%
same,"viability, T/C",[31],68%
same,"viability, T/C",[32],55.8%
same,"viability, T/C",[33],67.1%
same,"viability, T/C",[34],72.4%
same,"viability, T/C",[35],26.9%
same,"viability, T/C",[36],5.35%
C[C@@H](NC(=O)c1ncnc(N)c1Cl)c1ncc(C(=O)Nc2cc(C(F)(F)F)c(Cl)cn2)s1 + CC(Nc1ncnc2nc[nH]c12)c1cc2cccc(Cl)c2c(=O)n1-c1ccccc1,pIC50,second compound 0.0316 µM,< 5.00
same,pIC50,second compound 0.1 µM,< 5.00
same,pIC50,second compound 0.316 µM,< 5.00
same,pIC50,second compound 1 µM,< 5.00
same,pIC50,second compound 3.16 µM,< 5.00
same,pIC50,second compound 10 µM,< 5.00
same,"viability, T/C",[1],129%
same,"viability, T/C",[2],114%
same,"viability, T/C",[3],99.7%
same,"viability, T/C",[4],95.9%
same,"viability, T/C",[5],84.1%
same,"viability, T/C",[6],74.9%
same,"viability, T/C",[7],98%
same,"viability, T/C",[8],115%
same,"viability, T/C",[9],99.9%
same,"viability, T/C",[10],108%
same,"viability, T/C",[11],97.6%
same,"viability, T/C",[12],73.3%
same,"viability, T/C",[13],98.2%
same,"viability, T/C",[14],106%
same,"viability, T/C",[15],96.3%
same,"viability, T/C",[16],102%
same,"viability, T/C",[17],94.3%
same,"viability, T/C",[18],94.3%
same,"viability, T/C",[19],83.7%
same,"viability, T/C",[20],93.3%
same,"viability, T/C",[21],102%
same,"viability, T/C",[22],100%
same,"viability, T/C",[23],89.1%
same,"viability, T/C",[24],73.2%
same,"viability, T/C",[25],112%
same,"viability, T/C",[26],89%
same,"viability, T/C",[27],96.1%
same,"viability, T/C",[28],82.6%
same,"viability, T/C",[29],99.4%
same,"viability, T/C",[30],75.5%
same,"viability, T/C",[31],110%
same,"viability, T/C",[32],98.5%
same,"viability, T/C",[33],96.5%
same,"viability, T/C",[34],96.1%
same,"viability, T/C",[35],92.9%
same,"viability, T/C",[36],107%
